Assay results published in ChEMBL document CHEMBL1128897, “Bivalent indoles exhibiting serotonergic binding affinity” (Bioorg Med Chem Lett, 1995).
pIC50: −log10 of the molar value.

Legend:
[1] = biological target: T1, 5-hydroxytryptamine receptor 1A (Rattus norvegicus, UniProt P19327); assay: Inhibitory activity against 5-hydroxytryptamine 1A receptor subtype
T1 sequence (P19327 whole entry): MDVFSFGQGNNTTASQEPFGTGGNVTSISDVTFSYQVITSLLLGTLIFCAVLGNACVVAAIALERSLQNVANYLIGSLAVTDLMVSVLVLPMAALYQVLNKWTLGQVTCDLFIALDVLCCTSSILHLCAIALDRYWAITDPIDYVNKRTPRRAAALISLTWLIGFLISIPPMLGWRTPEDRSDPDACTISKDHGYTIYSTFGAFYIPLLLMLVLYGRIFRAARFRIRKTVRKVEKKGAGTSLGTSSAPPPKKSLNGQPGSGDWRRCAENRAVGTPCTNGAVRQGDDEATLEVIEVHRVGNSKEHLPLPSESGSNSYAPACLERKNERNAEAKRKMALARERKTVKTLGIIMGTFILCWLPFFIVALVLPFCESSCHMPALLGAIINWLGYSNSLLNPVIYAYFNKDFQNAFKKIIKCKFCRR

[2] = biological target: Sodium-dependent serotonin transporter (Rattus norvegicus, UniProt P31652); assay: Ability to inhibit Serotonin transporter
[3] = biological target: 5-hydroxytryptamine receptor 1E (Homo sapiens, UniProt P28566); assay: Inhibitory activity against 5-hydroxytryptamine 1E receptor subtype
Chain of 5-hydroxytryptamine receptor 1E (P28566 whole entry): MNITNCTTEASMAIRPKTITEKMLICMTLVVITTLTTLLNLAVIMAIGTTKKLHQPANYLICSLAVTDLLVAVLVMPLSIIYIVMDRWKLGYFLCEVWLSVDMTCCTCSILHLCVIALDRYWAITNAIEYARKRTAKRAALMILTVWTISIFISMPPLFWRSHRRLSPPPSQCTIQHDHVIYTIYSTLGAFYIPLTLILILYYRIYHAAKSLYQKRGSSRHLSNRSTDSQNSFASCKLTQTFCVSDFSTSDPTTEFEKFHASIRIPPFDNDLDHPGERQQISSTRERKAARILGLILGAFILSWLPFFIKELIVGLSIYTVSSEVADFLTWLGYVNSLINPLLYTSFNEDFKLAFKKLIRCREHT

Chain of Sodium-dependent serotonin transporter (P31652 whole entry): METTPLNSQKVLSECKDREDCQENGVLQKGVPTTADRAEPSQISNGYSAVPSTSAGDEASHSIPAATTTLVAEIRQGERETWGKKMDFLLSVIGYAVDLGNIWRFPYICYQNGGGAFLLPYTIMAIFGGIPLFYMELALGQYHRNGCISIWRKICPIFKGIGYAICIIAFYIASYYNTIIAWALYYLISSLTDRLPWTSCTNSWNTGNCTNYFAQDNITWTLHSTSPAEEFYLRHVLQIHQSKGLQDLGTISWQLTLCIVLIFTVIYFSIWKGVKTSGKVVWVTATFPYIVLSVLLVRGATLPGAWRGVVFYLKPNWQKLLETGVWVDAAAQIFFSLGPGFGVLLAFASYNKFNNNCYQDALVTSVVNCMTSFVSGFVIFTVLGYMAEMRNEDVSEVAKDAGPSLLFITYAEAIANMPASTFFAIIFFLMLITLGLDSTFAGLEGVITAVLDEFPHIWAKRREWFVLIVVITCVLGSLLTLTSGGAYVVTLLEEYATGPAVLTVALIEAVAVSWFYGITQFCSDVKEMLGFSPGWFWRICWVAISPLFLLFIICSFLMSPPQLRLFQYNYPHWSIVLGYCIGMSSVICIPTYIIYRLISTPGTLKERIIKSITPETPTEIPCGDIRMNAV

| pIC50 [1] | pIC50 [2] | pIC50 [3] | Compound |
| --- | --- | --- | --- |
| 8.54 | 7.32 | < 6.00 | NC(=O)c1ccc2[nH]cc(C3=CCC(NCCCCCNC4CC=C(c5c[nH]c6ccc(C(N)=O)cc56)CC4)CC3)c2c1 (centres undefined) |
| 8.64 | 7.47 | < 6.00 | NC(=O)c1ccc2[nH]cc(C3=CCC(NCCCCCCNC4CC=C(c5c[nH]c6ccc(C(N)=O)cc56)CC4)CC3)c2c1 (centres undefined) |
| 8.70 | 7.90 | < 6.00 | NC(=O)c1ccc2[nH]cc(C3=CCC(NCCNC4CC=C(c5c[nH]c6ccc(C(N)=O)cc56)CC4)CC3)c2c1 (centres undefined) |
| 8.74 | 7.75 | 7.00 | NC(=O)c1ccc2[nH]cc(C3=CCC(NCCCCCCCNC4CC=C(c5c[nH]c6ccc(C(N)=O)cc56)CC4)CC3)c2c1 (centres undefined) |
| 9.89 | – | – | NC(=O)c1ccc2[nH]cc(C3=CCC(NCCCCCCCCCCCCNC4CC=C(c5c[nH]c6ccc(C(N)=O)cc56)CC4)CC3)c2c1 (centres undefined) |
| 8.67 | 7.91 | 6.41 | NC(=O)c1ccc2[nH]cc(C3=CCC(NCCCCCCCCNC4CC=C(c5c[nH]c6ccc(C(N)=O)cc56)CC4)CC3)c2c1 (centres undefined) |
| 7.84 | 7.32 | < 6.00 | NC(=O)c1ccc2[nH]cc(C3=CCC(NCCCCNC4CC=C(c5c[nH]c6ccc(C(N)=O)cc56)CC4)CC3)c2c1 (centres undefined) |
| 7.74 | – | < 6.00 | NC(=O)c1ccc2[nH]cc(C3=CCC(NCCCNC4CC=C(c5c[nH]c6ccc(C(N)=O)cc56)CC4)CC3)c2c1 (centres undefined) |
| 9.66 | – | < 6.00 | NC(=O)c1ccc2[nH]cc(C3=CCC(NCCCCCCCCCCNC4CC=C(c5c[nH]c6ccc(C(N)=O)cc56)CC4)CC3)c2c1 (centres undefined) |
| 8.90 | – | – | CCCCCCCNC1CC=C(c2c[nH]c3ccc(C(N)=O)cc23)CC1 (centres undefined) |
